The test system of the series is CCRIS mutagenicity, Ames/micronucleus/aberration tests. Put plainly: CCRIS mutagenicity studies.
Where [1] appears, read: Test System: AMES SALMONELLA TYPHIMURIUM, Strain/Indicator: TA98, Metabolic Activation: NONE, Method: PREINCUBATION
[2] abbreviates: Test System: AMES SALMONELLA TYPHIMURIUM, Strain/Indicator: TA98, Metabolic Activation: RAT, LIVER, S-9, AROCLOR 1254, Method: PREINCUBATION
Setting [3] is: Test System: AMES SALMONELLA TYPHIMURIUM, Strain/Indicator: TA100, Metabolic Activation: NONE, Method: PREINCUBATION
[4] abbreviates: Test System: AMES SALMONELLA TYPHIMURIUM, Strain/Indicator: TA100, Metabolic Activation: RAT, LIVER, S-9, AROCLOR 1254, Method: PREINCUBATION
[5] abbreviates: Test System: AMES SALMONELLA TYPHIMURIUM, Strain/Indicator: TA98, Metabolic Activation: NONE, Method: STANDARD PLATE.
Where [6] appears, read: Test System: AMES SALMONELLA TYPHIMURIUM, Strain/Indicator: TA100, Metabolic Activation: NONE, Method: STANDARD PLATE.

Activity calls are given as the source filed them. No rule for the calls is given here.

Regarding `Cc1cccc(C)c1N`, the mutagenic call by setting is: (End Point: IN VITRO CHROMOSOMAL ABERRATIONS, Test System: CHINESE HAMSTER OVARY CELLS, Metabolic Activation: NONE) “active; positive; precipitation occurred at all doses”; (End Point: IN VITRO CHROMOSOMAL ABERRATIONS, Test System: CHINESE HAMSTER OVARY CELLS, Metabolic Activation: RAT, LIVER, S-9, AROCLOR 1254) “active; positive; precipitation occurred at 1200 and 1300 ug/ml”; (Test System: AMES SALMONELLA TYPHIMURIUM, Strain/Indicator: TA97, Metabolic Activation: HAMSTER, LIVER, S-9, AROCLOR 1254 (30%), Method: PREINCUBATION) “inactive; negative”; (Test System: AMES SALMONELLA TYPHIMURIUM, Strain/Indicator: TA97, Metabolic Activation: NONE, Method: PREINCUBATION) “inactive; negative”; (Test System: AMES SALMONELLA TYPHIMURIUM, Strain/Indicator: TA97, Metabolic Activation: RAT, LIVER, S-9, AROCLOR 1254 (30%), Method: PREINCUBATION) “inactive; negative”; (Test System: AMES SALMONELLA TYPHIMURIUM, Strain/Indicator: TA98, Metabolic Activation: HAMSTER, LIVER, S-9, AROCLOR 1254 (10%), Method: PREINCUBATION) “inactive; negative”. In addition, the mutagenic call is “inactive; negative” (Test System: AMES SALMONELLA TYPHIMURIUM, Strain/Indicator: TA98, Metabolic Activation: HAMSTER, LIVER, S-9, AROCLOR 1254 (30%), Method: PREINCUBATION); “inactive; negative” (Test System: AMES SALMONELLA TYPHIMURIUM, Strain/Indicator: TA98, Metabolic Activation: HAMSTER, LIVER, S-9, AROCLOR 1254, Method: PREINCUBATION); “inactive; negative” under setting [1]; “inactive; negative” (Test System: AMES SALMONELLA TYPHIMURIUM, Strain/Indicator: TA98, Metabolic Activation: RAT, LIVER, S-9, AROCLOR 1254 (10%), Method: PREINCUBATION); “inactive; negative” (Test System: AMES SALMONELLA TYPHIMURIUM, Strain/Indicator: TA98, Metabolic Activation: RAT, LIVER, S-9, AROCLOR 1254 (30%), Method: PREINCUBATION); “inactive; negative” under setting [2]. For the same compound, the mutagenic call reads like this: (Test System: AMES SALMONELLA TYPHIMURIUM, Strain/Indicator: TA100, Metabolic Activation: HAMSTER, LIVER, S-9, AROCLOR 1254 (5%), Method: PREINCUBATION) “inactive; negative”; (Test System: AMES SALMONELLA TYPHIMURIUM, Strain/Indicator: TA100, Metabolic Activation: HAMSTER, LIVER, S-9, AROCLOR 1254 (10%), Method: PREINCUBATION) “inactive; negative”; (Test System: AMES SALMONELLA TYPHIMURIUM, Strain/Indicator: TA100, Metabolic Activation: HAMSTER, LIVER, S-9, AROCLOR 1254, Method: PREINCUBATION) “inactive; negative”; under setting [3], “inactive; negative”; (Test System: AMES SALMONELLA TYPHIMURIUM, Strain/Indicator: TA100, Metabolic Activation: RAT, LIVER, S-9, AROCLOR 1254 (5 OR 30%), Method: PREINCUBATION) “inactive; negative”; (Test System: AMES SALMONELLA TYPHIMURIUM, Strain/Indicator: TA100, Metabolic Activation: RAT, LIVER, S-9, AROCLOR 1254 (10%), Method: PREINCUBATION) “inactive; negative”. Moreover, the mutagenic call reads like this: under setting [4], “inactive; negative”; (Test System: AMES SALMONELLA TYPHIMURIUM, Strain/Indicator: TA1535, Metabolic Activation: HAMSTER, LIVER, S-9, AROCLOR 1254 (5%), Method: PREINCUBATION) “inactive; negative”; (Test System: AMES SALMONELLA TYPHIMURIUM, Strain/Indicator: TA1535, Metabolic Activation: HAMSTER, LIVER, S-9, AROCLOR 1254, Method: PREINCUBATION) “inactive; negative”; (Test System: AMES SALMONELLA TYPHIMURIUM, Strain/Indicator: TA1535, Metabolic Activation: NONE, Method: PREINCUBATION) “inactive; negative”; (Test System: AMES SALMONELLA TYPHIMURIUM, Strain/Indicator: TA1535, Metabolic Activation: RAT, LIVER, S-9, AROCLOR 1254 (5%), Method: PREINCUBATION) “inactive; negative”; (Test System: AMES SALMONELLA TYPHIMURIUM, Strain/Indicator: TA1535, Metabolic Activation: RAT, LIVER, S-9, AROCLOR 1254 (10 OR 30%), Method: PREINCUBATION) “inactive; negative”. Moreover, the mutagenic call runs as follows: (Test System: AMES SALMONELLA TYPHIMURIUM, Strain/Indicator: TA1535, Metabolic Activation: RAT, LIVER, S-9, AROCLOR 1254, Method: PREINCUBATION) “inactive; negative”; (Test System: AMES SALMONELLA TYPHIMURIUM, Strain/Indicator: TA1537, Metabolic Activation: HAMSTER, LIVER, S-9, AROCLOR 1254 (10%), Method: PREINCUBATION) “inactive; negative”; (Test System: AMES SALMONELLA TYPHIMURIUM, Strain/Indicator: TA1537, Metabolic Activation: HAMSTER, LIVER, S-9, AROCLOR 1254, Method: PREINCUBATION) “inactive; negative”; (Test System: AMES SALMONELLA TYPHIMURIUM, Strain/Indicator: TA1537, Metabolic Activation: NONE, Method: PREINCUBATION) “inactive; negative”; (Test System: AMES SALMONELLA TYPHIMURIUM, Strain/Indicator: TA1537, Metabolic Activation: RAT, LIVER, S-9, AROCLOR 1254 (10%), Method: PREINCUBATION) “inactive; negative”; (Test System: AMES SALMONELLA TYPHIMURIUM, Strain/Indicator: TA1537, Metabolic Activation: RAT, LIVER, S-9, AROCLOR 1254, Method: PREINCUBATION) “inactive; negative”.
In the case of `COC(=O)C12C[C@@]1(C=O)C(C=O)=C[C@@H]1CC(C)(C)C[C@@H]12` (stereo not given in full), the mutagenic call is “active; positive” under setting [5]; “active; positive” under setting [6]; “active; positive” (Test System: AMES SALMONELLA TYPHIMURIUM, Strain/Indicator: TA2637, Metabolic Activation: NONE, Method: STANDARD PLATE).
Consider `COC(=O)C(/C=C(C)/C=C(C)/C=C/C=C(\C)C(=O)[C@]12O[C@H]1[C@@](O)(CCO)NC2=O)=C/CO`, for which the mutagenic call under setting [3] was “active; positive”.
Take `COc1cc2c(c3oc(=O)c4c(c13)CCC4=O)[C@H]1[C@@H](O2)O[C@@H]2O[C@@H]21`: the mutagenic call runs as follows: under setting [1], “active; positive”; under setting [2], “active; positive”; (Test System: AMES SALMONELLA TYPHIMURIUM, Strain/Indicator: TA100, Metabolic Activation: NONE, Method: MICROSUSPENSION) “active; positive”; under setting [3], “active; positive”; (Test System: AMES SALMONELLA TYPHIMURIUM, Strain/Indicator: TA100, Metabolic Activation: RAT, LIVER, S-9, AROCLOR 1254, Method: MICROSUSPENSION) “active; positive”; under setting [4], “active; positive”.
For `O=C(Cn1c(=O)sc2ccccc21)OCc1ccccc1`, the mutagenic call reads like this: (Test System: AMES SALMONELLA TYPHIMURIUM, Strain/Indicator: TA97, Metabolic Activation: NONE, Method: STANDARD PLATE) “inactive; negative”; (Test System: AMES SALMONELLA TYPHIMURIUM, Strain/Indicator: TA97, Metabolic Activation: RAT, LIVER, S-9, DELOR 103, Method: STANDARD PLATE) “inactive; negative”; under setting [5], “inactive; negative”; (Test System: AMES SALMONELLA TYPHIMURIUM, Strain/Indicator: TA98, Metabolic Activation: RAT, LIVER, S-9, DELOR 103, Method: STANDARD PLATE) “inactive; negative”; under setting [6], “inactive; negative”; (Test System: AMES SALMONELLA TYPHIMURIUM, Strain/Indicator: TA100, Metabolic Activation: RAT, LIVER, S-9, DELOR 103, Method: STANDARD PLATE) “inactive; negative”. Moreover, the mutagenic call is, setting by setting: (Test System: AMES SALMONELLA TYPHIMURIUM, Strain/Indicator: TA1535, Metabolic Activation: NONE, Method: STANDARD PLATE) “inactive; negative”; (Test System: AMES SALMONELLA TYPHIMURIUM, Strain/Indicator: TA1535, Metabolic Activation: RAT, LIVER, S-9, DELOR 103, Method: STANDARD PLATE) “inactive; negative”; (Test System: AMES SALMONELLA TYPHIMURIUM, Strain/Indicator: TA1538, Metabolic Activation: NONE, Method: STANDARD PLATE) “inactive; negative”; (Test System: AMES SALMONELLA TYPHIMURIUM, Strain/Indicator: TA1538, Metabolic Activation: RAT, LIVER, S-9, DELOR 103, Method: STANDARD PLATE) “inactive; negative”.

The values are drawn from PubChem BioAssay AID1259407 (Chemical Carcinogenesis Research Information System (CCRIS), 2018).
